Experimental data as given in patent US8877757B2, “Pyrazine derivatives and use as PI3K inhibitors” (Merck Serono SA, priority 2005, dated 2014).

How the values were obtained:
[1] = molecular target: Human recombinant GST-PI3δ (Homo sapiens (Human), UniProt O00329); experiment: PI3K induced-lipid phosphorylation scintillation proximity assay (neomycin-coated SPA beads); format: biochemical
Text: The efficacy of compounds of the invention in inhibiting the PI3K induced-lipid phosphorylation may be tested in the following binding assay.
The assay combines the scintillation proximity assay technology (SPA, Amersham) with the capacity of neomycin (a polycationic antibiotic) to bind phospholipids with high affinity and specificity. The Scintillation Proximity Assay is based on the properties of weakly emitting isotopes (such as ^3H, ^125I, ^33P). Coating SPA beads with neomycin allows the detection of phosphorylated lipid substrates after incubation with recombinant PI3K and radioactive ATP in the same well, by capturing the radioactive phospholipids to the SPA beads through their specific binding to neomycin.
To a 96 wells MTP containing 10 μl of the test compound of Formula (I) (solubilized in 10% DMSO; to yield a concentration of 100, 25, 5.0, 1.25, 0.312, 0.078, 0.0195, 0.00488, 0.00122 and 0.0003 μM of the test compound), the following assay components are added: 1) 10 μl of lipid micelles 2) 20 μl of Kinase buffer ([^33P]γ-ATP 162 μM/300 nCi, MgCl2 2.5 mM, DTT 2.5 mM, Na3VO4 25 μM in Hepes 40 mM, pH 7.4) and 3) 10 μl (100 ng) of Human recombinant GST-PI3δ (in Hepes 40 mM, pH 7.4, ethylenglycol 4%). After incubation at room temperature for 120 minutes, with gentle agitation, the reaction is stopped by addition of 200 μl of a solution containing 250 μg of neomycin-coated PVT SPA beads, ATP 60 mM and EDTA 6.2 mM in PBS. The assay is further incubated at room temperature for 60 minutes with gentle agitation to allow binding of phospholipids to neomycin-SPA beads. After precipitation of the neomycin-coated PVT SPA beads for 5 minutes at 1500×g, radioactive PtdIns(3)P is quantified by scintillation counting in a Wallac MicroBeta™ plate counter.
The values indicated in Table I below refer to the IC50 (μM) with respect to PI3K, i.e. the amount necessary to achieve 50% inhibition of said target. Said values show a considerable inhibitory potency of pyrazine compounds with regard to PI3K.

[2] = system: Akt phosphorylation in B cells; experiment: IgM-induced Akt phosphorylation in B cell (human PBMC, flow cytometry); format: cell-based; settings: 5 min, CD19+ IgM+ B cells in human PBMC, anti IgM for 5 minutes, read-out: IC50, inhibition of IgM-induced Akt Phosphorylation
Protocol: Human PBMC were prepared from a Buffy coat (Geneve Hospital) after a Ficoll gradient (FICOLL-PAQUE Plus PHARMACIA ref: 17-1440-03).
Cell concentration was adjusted to 10^6 cells per ml in RPMI (GIBCO Ref: 72400-21) without serum. Before stimulation, 90 μl of PBMC suspension was incubated with 10 μl of diluted compound in a 96 well round bottom plate for 20 minutes at 37° C.
For B cell activation, 30 μl of Fab′2 Goat anti IgM (Jackson Immuno-research) at 10 μg/ml was added to each well. After 5 minutes, cell activation was stopped with 4% paraformaldehyde (10 minutes at room temperature).
Fixed PBMC were then treated for 20 minutes with 0.15% Triton, washed twice with PBS and permeabilized with 50% methanol for 15 minutes.
PBMC were washed twice in PBS, resuspended in: PBS-4% FCS and incubated with anti P-Akt (1/100 dilution) for one hour at room temperature.
After one wash, PBMC were further stained for 30 minutes with a mixture of anti-CD19-PE (BD Biosciences), anti-IgM-FITC (BD Biosciences) and goat anti rabbit IgG-Alexa 647 (Molecular probe).
After washing, PBMC (Peripheral Blood Mononuclear Cells) were analysed on a FACSCalibur instrument (BD Biosciences) equipped with a 633 helium-neon laser, or stored at 4° C. for further analysis. 510^3 B cells events were gathered per sample in the CD19 positive region.
For the analysis, a threshold was applied on P-Akt histogram of CD 19+ IgM+ lymphocytes cells from the non-stimulated samples and the percentage of cells above this threshold was determined for each sample.

[3] = system: PKB/Akt phosphorylation in mast cells; experiment: SCF-induced PKB/Akt phosphorylation in mast cells; format: cell-based, mice; settings: Mast cell, 0.25 h; mast cells derived from mouse bone marrow, 20 ng/mL SCF for 15 minutes; read-out: IC50, inhibition of SCF-induced Akt Phosphorylation
Protocol: Protocol: Primary bone marrow cells were isolated from 4-8 weeks old wild type mice and derived to mast cells by incubation with medium containing 20 ng/mL of stem cell factor (SCF) (PeproTech, Switzerland) and 20 ng/mL of IL-3 (PeproTech, Switzerland) for at least 4 weeks. Confirmation of the expression of mast cell specific surface markers was done by FACS analysis using antibodies against c-kit (cKit-PE mouse antibody; Pharmingen). Cells were maintained in culture in the presence of SCF and IL-3. To induce PKB/Akt phosphorylation, mast cells were resuspended at 2.5×10^6 cells/mL and starved in medium containing no SCF or IL-3 for 24 h. After preincubation with compounds or 1% DMSO for 20 minutes, cells were activated with 20 ng/mL of SCF for 15 minutes at 37° C., fixed in 1.5% paraformaldehyde for 20 minutes and permeabilised with 0.2% Triton X-100 for 10 minutes, at room temperature. PKB/Akt phosphorylation was visualized using phospho-Ser-473 specific Akt antibodies (Cell Signaling) and standard FACS protocols.

Female Balb/c mice = experiment: Passive cutaneous anaphylaxis (PCA); format: in vivo; settings: 30 mg/kg oral route, 2 hours before challenge
Protocol: Female Balb/c mice (Elevage Janvier) (8 week old) were intradermally injected by anti-DNP IgE (50 ng in 20 μl, id, 2 sites of injection) on their shaved backs. Twenty four hours later they received an intravenous injection of DNP-human serum albumin (50 μg/mouse) and Evans blue (25 mg/kg) by retroorbital injection. Thirty minutes later, the animals were sacrificed. The skin of the back was removed. The extravasated dye (punch diameter: 5 mm) was extracted from 2 punches by 0.4 ml of formamide and was quantified by fluorescence (E1: 585 nm, E2: 660 nm).
Inhibitors are administered by oral route at the dose of 30 mg/kg 2 hours before the challenge of DNP-human serum albumin and Evans blue.

Class I PI3-kinases = settings: Fruman et al., 1998; read-out: IC50 against each of the various Class I PI3-kinases; cited from earlier work

Sequence of Human recombinant GST-PI3δ (O00329 whole entry): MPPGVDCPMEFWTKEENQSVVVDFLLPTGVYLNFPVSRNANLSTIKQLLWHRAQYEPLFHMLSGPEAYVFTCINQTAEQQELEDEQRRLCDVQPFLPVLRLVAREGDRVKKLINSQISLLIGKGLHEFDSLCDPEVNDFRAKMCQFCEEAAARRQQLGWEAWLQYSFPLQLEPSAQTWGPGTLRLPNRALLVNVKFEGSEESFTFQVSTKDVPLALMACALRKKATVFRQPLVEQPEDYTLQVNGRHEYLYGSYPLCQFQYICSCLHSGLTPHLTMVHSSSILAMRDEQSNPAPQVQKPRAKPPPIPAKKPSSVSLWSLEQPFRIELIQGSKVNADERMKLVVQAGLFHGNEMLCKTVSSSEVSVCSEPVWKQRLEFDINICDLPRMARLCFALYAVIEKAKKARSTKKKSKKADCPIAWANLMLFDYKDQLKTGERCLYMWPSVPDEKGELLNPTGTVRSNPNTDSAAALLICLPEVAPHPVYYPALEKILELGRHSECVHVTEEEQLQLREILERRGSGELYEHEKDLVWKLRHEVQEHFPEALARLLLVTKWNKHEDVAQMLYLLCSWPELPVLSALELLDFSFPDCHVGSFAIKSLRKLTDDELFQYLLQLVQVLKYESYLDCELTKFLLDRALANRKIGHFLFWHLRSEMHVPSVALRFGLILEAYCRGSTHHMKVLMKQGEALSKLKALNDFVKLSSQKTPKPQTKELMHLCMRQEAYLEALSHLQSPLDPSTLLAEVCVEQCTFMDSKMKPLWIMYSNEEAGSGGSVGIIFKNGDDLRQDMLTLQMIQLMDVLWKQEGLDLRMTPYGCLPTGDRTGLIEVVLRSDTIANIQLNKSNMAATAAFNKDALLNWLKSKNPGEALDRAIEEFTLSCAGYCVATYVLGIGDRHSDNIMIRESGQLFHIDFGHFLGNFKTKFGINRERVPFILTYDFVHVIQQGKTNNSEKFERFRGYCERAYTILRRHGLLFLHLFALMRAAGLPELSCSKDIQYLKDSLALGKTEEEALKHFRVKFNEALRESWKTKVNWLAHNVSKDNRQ

IC50 [1] [nM]	IC50 [2] [nM]	IC50 [3] [nM]	Compound	inhibition of vascular permeability (Female Balb/c mice) [%]	IC50 (Class I PI3-kinases) [nM]
73	–	–	COc1ccc(OC)c(Nc2nc3ncccc3nc2NS(=O)(=O)c2ccccc2)c1 [Example 86, N-{3-[(2,5-dimethoxyphenyl)amino]pyrido[2,3-b]pyrazin-2-yl}benzene sulfonamide]	–	–
27	16	180	COc1cc(Nc2nc3ccccc3nc2NS(=O)(=O)c2ccc(CN(C)C)cc2)cc(OC)c1 [Example 138, N-{3-[(3,5-dimethoxyphenyl)amino]quinoxalin-2-yl}-4-[(dimethylamino)methyl]benzenesulfonamide]	–	–
30	–	–	COc1cc(Nc2nc3ccccc3nc2NS(=O)(=O)c2cccc(C(=O)NCCCN(C)C)c2)cc(OC)c1 [Example 144, 3-[({3-[(3,5-dimethoxyphenyl)amino]quinoxalin-2-yl}amino)sulfonyl]-N-[3-(dimethylamino)propyl]benzamide]	–	–

Continued, compound first:

Compound	IC50 [1] [nM]	IC50 [2] [nM]	IC50 [3] [nM]	inhibition of vascular permeability (Female Balb/c mice) [%]	IC50 (Class I PI3-kinases) [nM]
COc1ccc(OC)c(Nc2nc3ccccc3nc2NS(=O)(=O)c2cccc(C#N)c2)c1 [Example 11, 3-Cyano-N-{3-[(2,5-dimethoxyphenyl)amino]quinoxalin-2-yl}benzene sulfonamide]	430	–	–	–	–
COc1ccc(OC)c(Nc2nc3ccccc3nc2NS(=O)(=O)c2cn(C)cn2)c1 [Example 13, N-{3-[(2,5-dimethoxyphenyl)amino]quinoxalin-2-yl}-1-methyl-1H-imidazole-4-sulfonamide]	80	30	–	–	–
COc1ccc(OC)c(Nc2nc3ccccc3nc2NS(=O)(=O)c2ccc3c(c2)sc(=O)n3C)c1 [Example 29, N-{3-[(2,5-dimethoxyphenyl)amino]quinoxalin-2-yl}-3-methyl-2-oxo-2,3-dihydro-1,3-benzothiazole-6-sulfonamide]	240	–	–	–	–
COc1ccc(OC)c(Nc2nc3ccccc3nc2NS(=O)(=O)c2cccnc2)c1 [Example 65, N-{3-[(2,5-dimethoxyphenyl)amino]quinoxalin-2-yl}pyridine-3-sulfonamide]	56	21	1190	84	–
COC[C@H]1OC(=O)c2coc3c2[C@@]1(C)C1=C(C3=O)[C@@H]2CCC(=O)[C@@]2(C)C[C@H]1OC(C)=O [Wortmannin]	–	–	–	–	1 to 10
